A short description of data set [1]: in vitro. The note with it: rat, plasma.
Experimental: (§1) The calcium flux protocol described above was followed, with the following changes. The peptides were also incubated with 5% rat plasma (Bioreclamation # [sequence]-M, Na Heparin-treated). Readings were taken at time points t0 and t24 hrs, after incubation in a 37° C. tissue culture incubator. Peptide plasma half-life in minutes was estimated by calculating the following: • 1) LN((EC50 at t0)/(EC50 at t24 hrs)), • 2) Calculate slope of value above and • 3) t112=0.693/(slope^2).
Data set [2] can be described thus: Plasma stability assay (LC-MS). In kind it is in vitro ADME. To be noted: male, Sprague-Dawley; Table 3; heparinized rat plasma, 37° C., LC-MS percent remaining; read-out: Plasma stability t½. The procedure: Working solution: 1 mg/mL test article is prepared in Milli-Q water
Extraction solution: Methanol:Acetonitrile:Water (1:1:1) with 0.1% Formic Acid and 400 ng/mL Glyburide.
Plasma: Male Sprague-Dawley rat plasma (with sodium heparin), purchased from Bioreclamation LLC (Liverpool, N.Y.).
Test article was prepared in one of the following biological matrices: heparinized rat plasma, heparinized rat whole blood or lung homogenate. The plasma and whole blood sample was prepared at 5000 ng/mL by adding 5 uL of 1 mg/mL Working solution to 995 uL of rat plasma or whole blood. Lung homogenate samples were prepared by diluting lung homogenate to 1 mg/ml protein concentration with phosphate buffered saline (PBS), followed by addition of 5 uL Working solution to 995 uL diluted lung homogenate. The samples were incubated at 37° C. with gentle shaking (65˜75 rpm) in a water bath incubator. At times 0 min, 5 min, 15 min, 30 min, 60 min, 120 and 240 min, 25 uL aliquots of incubation samples were transferred to 96-well plate and immediately protein precipitated using 150 uL of Extraction solution. After completion of incubation experiment, the sample plate was centrifuged at 4000 rpm at 4° C. for 10 minutes. Afterwards, a pipetting device (Tecan Temo) was used to transfer the supernatants to another plate and add 50 uL of water to all samples. The plate was vortexed prior to LC-MS analysis. […]

For data set [3] the following is noted: rat.
Experimental: as §1

SMILES strings stand for the structures. Where a SMILES comes first, the peptide text is derived from it. Where only a bound is given, the exact number is not on record here.

Take `CCCC[C@@H]1NC(=O)[C@@H]2CCCN2C(=O)CNC(=O)[C@H](CCCCN)NC(=O)[C@H](Cc2c[nH]cn2)NC(=O)[C@@H](NC(=O)[C@H](CC(C)C)NC(=O)[C@H](CCCNC(=N)N)NC(=O)[C@@H]2CCCN2C(=O)[C@H](CCCNC(=N)N)NC(=O)[C@@H]2CCC(=O)N2)CSSC[C@@H](C(=O)O)NC(=O)[C@@H]2CCCN2C1=O` [Example 8, pE-R-P-R-L-C*-H-K-G-P-Nle-P-C*-OH] (HELM PEPTIDE1{[Glp].R.P.R.L.C.H.K.G.P.[Nle].P.C}$PEPTIDE1,PEPTIDE1,6:R3-13:R3$$$V2.0): in data set [1], the half-life is more than 16.7 h. Moreover, in data set [2], the half-life at 5000 ng/mL came out at 2.42 h. Also, the “Surrogate Activity based Plasma stability t½” value in data set [3] was more than 16.67 h.

The values above are taken from patent US9908919B2, “Cyclic apelin derivatives for the treatment of heart failure” (priority 2013, dated 2018).
